Measured values reported in the supplement of paper PMC10307832.

Columns and labels:
Assay in all cases: relative viability (nuclei count vs DMSO), 5 days (fraction); higher = more cells survive
[1] = compound: O=C(c1cc(Cc2n[nH]c(=O)c3ccccc23)ccc1F)N1CCN(C(=O)C2CC2)CC1 [Olaparib] + N=C(N)NC(=N)NCCc1ccccc1 [Phenformin] (partner 250 µM)
In short: (§1)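 The day after seeding in 1536-well plates, lung cancer cell lines were treated by pin tool with a single drug, or with a fixed anchor-drug dose together with five library-drug doses (not always all listed) in √10 steps. After 5 days, a combined fix-and-stain solution (final 0.05% Triton X-100, 1% formaldehyde, 1 ug/ml Hoechst) was added. Nuclei counted on 4× images gave relative viability as treated counts over vehicle counts, reported as the median of duplicate plates.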

[2] = compound: C[C@@H](Oc1cc(-c2cnn(C3CCNCC3)c2)cnc1N)c1c(Cl)ccc(F)c1Cl [Crizotinib] + Nc1ncn([C@H]2C[C@H](O)[C@@H](CO)O2)c(=O)n1 [Decitabine] (partner 2 µM)
In short: as §1

[3] = compound: O=C(c1cc(Cc2n[nH]c(=O)c3ccccc23)ccc1F)N1CCN(C(=O)C2CC2)CC1 [Olaparib] + COc1cc2c(Oc3ccc(NC(=O)C4(C(=O)Nc5ccc(F)cc5)CC4)cc3F)ccnc2cc1OCCCN1CCOCC1 [Foretinib] (partner 0.25 µM)
In short: as §1

[4] = compound: O=C(c1cc(Cc2n[nH]c(=O)c3ccccc23)ccc1F)N1CCN(C(=O)C2CC2)CC1 [Olaparib] + C[C@]1(O)C[C@@H](c2nc(-c3ccc4ccc(-c5ccccc5)nc4c3)c3c(N)nccn32)C1 [Linsitinib] (partner 1 µM)
In short: as §1

Cell Line	relative viability ([1]; first compound 0.08 µM)	relative viability ([1]; first compound 0.253 µM)	relative viability ([1]; first compound 2.53 µM)	relative viability ([1]; first compound 8 µM)	relative viability ([2]; first compound 0.01 µM)	relative viability ([2]; first compound 0.03162 µM)	relative viability ([2]; first compound 0.1 µM)	relative viability ([2]; first compound 0.3162 µM)	relative viability ([2]; first compound 1 µM)	relative viability ([3]; first compound 0.08 µM)	relative viability ([3]; first compound 0.253 µM)	relative viability ([3]; first compound 2.53 µM)	relative viability ([3]; first compound 8 µM)	relative viability ([4]; first compound 0.08 µM)	relative viability ([4]; first compound 0.253 µM)	relative viability ([4]; first compound 2.53 µM)	relative viability ([4]; first compound 8 µM)
201T	0.396	0.465	0.481	0.43	0.803	0.848	0.871	0.845	0.893	1.19	1.12	1.07	1.05	1.04	1.01	1.04	1.01
A549	0.234	0.217	0.172	0.121	0.213	0.216	0.324	0.16	0.257	0.996	0.774	0.872	0.548	0.761	0.567	0.588	0.436
A-427	0.461	0.259	0.258	0.241	0.54	0.561	0.526	–	0.593	1.03	1.01	0.769	0.834	1.12	1.03	1.03	0.851
ABC-1	0.239	0.234	0.243	0.276	1.09	–	1.02	–	1.15	1.09	1.31	0.98	0.922	1.1	0.918	0.644	0.556
BEN	–	0.292	0.28	0.261	0.687	0.61	0.761	0.632	0.647	–	0.529	0.688	0.702	0.89	0.749	1.05	0.982
CAL-12T	0.715	0.497	0.539	0.558	–	–	–	–	–	1.24	0.984	1.07	0.928	1.05	0.751	0.825	0.666
COR-L23	0.492	0.383	0.408	0.294	0.346	0.463	0.454	0.386	0.392	1.08	0.842	0.797	0.567	1.09	0.852	0.716	0.432
COR-L 105	0.535	0.42	0.479	0.418	0.583	0.675	0.658	0.629	0.713	1.37	0.988	0.807	0.835	1.03	0.804	0.706	0.591
Calu-6	–	–	–	–	–	–	–	–	–	0.892	0.789	0.855	0.536	1.06	0.866	0.824	0.717
ChaGo-K-1	0.624	0.441	0.475	0.42	0.485	0.488	0.528	0.463	0.536	0.872	0.868	0.763	0.608	–	–	–	–
EBC-1	–	–	–	–	–	–	–	–	–	0.116	0.094	0.1	0.107	1.07	0.824	0.848	0.751
EKVX	0.268	0.243	0.221	0.248	0.29	0.339	0.323	0.336	0.337	1.03	1	0.294	1.01	1.38	0.91	1.01	1.06
EMC-BAC-2	0.558	0.504	0.558	0.437	0.96	0.921	1.01	–	0.967	1.05	0.998	0.953	0.655	0.945	0.792	0.85	0.621
EPLC-272H	0.389	0.298	0.289	0.338	0.339	0.375	0.366	–	0.436	0.764	0.582	0.729	0.64	1.25	1.11	1.21	1.03
H3255	0.435	0.342	0.38	0.385	0.701	0.576	0.616	0.558	0.653	0.942	0.792	0.901	0.872	1.04	0.912	0.932	0.825
HARA	0.584	0.398	0.36	0.36	0.489	0.524	0.514	0.4	0.531	0.97	0.807	0.951	0.695	1.07	0.829	1.04	0.792
HCC-15	0.599	0.423	0.445	0.409	0.663	0.71	0.657	0.527	0.599	1.23	0.95	1.07	0.868	0.927	0.828	0.836	0.768
HCC-44	0.208	0.167	0.271	0.225	0.959	0.943	–	0.844	0.915	–	–	–	–	0.654	0.562	0.713	0.682
HCC-78	0.72	0.66	0.756	0.714	0.754	0.759	0.669	0.593	0.661	0.622	0.562	0.557	0.514	0.732	0.456	0.533	0.473
HCC-366	0.768	0.583	0.489	0.413	0.31	0.294	0.406	–	0.36	0.875	0.908	0.889	0.636	0.67	0.479	0.447	0.303
HCC-827	0.361	0.372	0.398	0.35	0.333	0.241	0.328	0.306	0.321	0.959	0.959	0.956	0.797	0.899	0.886	0.922	0.774
